Columns and labels:
[1] = test system: cocklebur; test: Test B pre/postemergence cocklebur; format: in vivo, Xanthium strumarium
Summary of the method: (§1)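 Herbicidal effect was estimated by eye on a ten-point control scale after plants spent twelve to sixteen days in a greenhouse following soil or foliar treatment. Foliar sprays targeted plants at one to four leaves; all doses were formulated in a non-phytotoxic solvent with surfactant.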

[2] = test system: velvetleaf; test: Test B pre/postemergence velvetleaf; format: in vivo, Abutilon theophrasti; conditions: for Plant response rating, Velvetleaf: Rate 250 g/ha
Summary of the method: as §1

[3] = test system: duck salad; test: Test B flood test duck salad; format: in vivo, Heteranthera limosa
Summary of the method: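 Each value is a visual injury score relative to controls, with 10 meaning complete control and 0 no effect. Evaluation took place twelve to sixteen days after the 2-leaf-stage plants were treated and kept in the greenhouse.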

[4] = test system: winter wheat; test: Test E winter wheat; format: in vivo, Triticum aestivum; conditions: Postemergence
Summary of the method: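 For postemergence, plants at the 1- to 4-leaf stage, in a 60:40 mix of sandy loam and potting mix, treated with compound formulated in a surfactant-containing non-phytotoxic solvent. Visual assessment versus untreated controls followed roughly 21–28 days in the greenhouse.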

[5] = test system: soybean; test: Test B pre/postemergence soybean; format: in vivo, Glycine max
Summary of the method: as §1

[6] = test system: common pursiane; test: Test D common purslane; format: in vivo, Portulaca oleracea; conditions: Rate 125 g/ha, Preemergence; 0 to 100 scale, 0 no injury, 100 complete control
Summary of the method: (§2)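 Scoring used a 0–100 visual injury scale, with 0 meaning no effect and 100 complete control, assessed 14–21 days after application alongside untreated pots. Preemergence treatments went onto sandy loam surfaces of separately potted seeds within a day of sowing.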

[7] = test system: bermuda-grass; test: Test D bermudagrass; format: in vivo, Cynodon dactylon; conditions: Rate 125 g/ha, Preemergence; 0 to 100 scale, 0 no injury, 100 complete control
Summary of the method: as §2

[8] = test system: green foxtail; test: Test E green foxtail; format: in vivo, Setaria viridis; conditions: Preemergence
[9] = test system: Italian ryegrass; test: Test E Italian ryegrass; format: in vivo, Lolium multiflorum; conditions: Preemergence
[10] = test system: blackgrass; test: Test E blackgrass; format: in vivo, Alopecurus myosuroides; conditions: Preemergence
[11] = test system: guineagrass; test: Test D guineagrass; format: in vivo, Panicum maximum; conditions: Rate 125 g/ha, Preemergence; 0 to 100 scale, 0 no injury, 100 complete control
Summary of the method: as §2

[12] = test system: winter wheat; test: Test E winter wheat; format: in vivo, Triticum aestivum; conditions: Preemergence
[13] = test system: winter barley; test: Test E winter barley; format: in vivo, Hordeum vulgare; conditions: Preemergence
[14] = test system: wild oat; test: Test E wild oat; format: in vivo, Avena fatua; conditions: Preemergence
[15] = test system: tall mallow; test: Test D tall mallow; format: in vivo, Malva sylvestris; conditions: Rate 125 g/ha, Preemergence; 0 to 100 scale, 0 no injury, 100 complete control
Summary of the method: as §2

[16] = test system: pitted morningglory; test: Test D pitted morningglory; format: in vivo, Ipomoea lacunosa; conditions: Rate 125 g/ha, Preemergence; 0 to 100 scale, 0 no injury, 100 complete control
Summary of the method: as §2

[17] = Postemergence, Rate 125 g/ha, scale of 0 to 10 where 0 is no effect and 10 is complete control
[18] = Preemergence, Rate 62 g/ha, scale 0 to 10 (0 no effect, 10 complete control)
[19] = Preemergence, Rate 125 g/ha, scale 0 to 10 (0 no effect, 10 complete control)
[20] = Preemergence, Rate 250 g/ha, scale of 0 to 10 where 0 is no effect and 10 is complete control
[21] = Rate 62 g/ha, Postemergence, scale of 0 to 10 where 0 is no effect and 10 is complete control
[22] = Rate 500 g/ha, Postemergence, scale 0 to 10, 0 no effect, 10 complete control
[23] = Preemergence, Rate 500 g/ha, scale 0 to 10 (0 no effect, 10 complete control)
[24] = Rate 62 g/ha, 0 to 100 scale, 0 no effect, 100 complete control
[25] = Rate 125 g/ha, 0 to 100 scale (0 no effect, 100 complete control)
[26] = Rate 500 g/ha, 0 to 100 scale where 0 is no effect and 100 is complete control

## CC(C)N(C(=O)n1oc(=O)n(C(C)C)c1=O)c1ccc(Cl)cc1 [Compound 114]
[1]; [17]
  Cocklebur plant response rating: 0
[1]; Postemergence, Rate 250 g/ha, scale 0 to 10, 0 no effect, 10 complete control
  Cocklebur plant response rating: 0
[1]; [18]
  Cocklebur plant response rating: 0
[1]; [19]
  Plant response rating, Cocklebur: 0
[1]; [20]
  Plant response rating, Cocklebur: 0
[1]; [21]
  Cocklebur plant response rating: 0
[1]; [22]
  Cocklebur plant response rating: 0
[2]; [17]
  Velvetleaf plant response rating: 1
[2]; [18]
  Velvetleaf plant response rating: 4
[2]; Preemergence, Rate 125 g/ha, 0 is no effect, 10 is complete control
  Velvetleaf plant response rating (0 to 10 scale): 4
[2]; Preemergence, scale of 0 to 10 where 0 is no effect and 10 is complete control
  Plant response rating, Velvetleaf: 5
[2]; [23]
  Velvetleaf plant response rating: 6
[2]; [21]
  Velvetleaf plant response rating: 0
[2]; Postemergence, scale 0 to 10, 0 is no effect, 10 is complete control
  Plant response rating, Velvetleaf: 3
[2]; [22]
  Velvetleaf plant response rating: 3
[3]; Postemergence (flood test species), Rate 125 g/ha, scale of 0 to 10 where 0 is no effect and 10 is complete control
  Ducksalad plant response rating: 0
[3]; Rate 62 g/ha, Postemergence section, flood test species, scale of 0 to 10 where 0 is no effect and 10 is complete control
  Ducksalad plant response rating: 0
[3]; Rate 500 g/ha, listed under Postemergence (flood test species), scale 0 to 10, 0 no effect, 10 complete control
  Ducksalad plant response rating: 0
[3]; flood test, listed under Postemergence, Rate 250 g/ha, scale 0 to 10, 0 no effect, 10 complete control
  Ducksalad plant response rating: 0
[4]; Rate 62 g/ha, 0 to 100 scale
  Plant response rating, Wheat (winter): 0
[4]; Rate 125 g/ha, 0 to 100 scale
  Plant response rating, Wheat (winter): 10
[4]; Rate 250 g/ha, 0 to 100 scale (0 no effect, 100 complete control)
  Plant response rating, Wheat (winter): 60
[4]; Rate 500 g/ha, 0 to 100 scale, 0 no effect, 100 complete control
  Plant response rating, Wheat (winter): 20
[5]; [17]
  Soybean plant response rating: 3
[5]; [18]
  Soybean plant response rating: 0
[5]; [19]
  Plant response rating, Soybean: 0
[5]; [20]
  Plant response rating, Soybean: 0
[5]; [23]
  Soybean plant response rating: 3
[5]; [21]
  Soybean plant response rating: 3
[5]; Rate 250 g/ha, Postemergence, scale 0 to 10, 0 is no effect, 10 is complete control
  Plant response rating, Soybean: 5
[5]; [22]
  Soybean plant response rating: 7
[6]
  Plant response rating, C. purslane: 0
[7]
  Plant response rating, Bermudagrass: 100
[8]; [24]
  Plant response rating, Green foxtail: 45
[8]; [25]
  Plant response rating, Green foxtail: 100
[8]; Rate 250 g/ha, 0 to 100 scale
  Plant response rating, Green foxtail: 100
[8]; [26]
  Plant response rating, Green foxtail: 85
[9]; [24]
  Plant response rating, I. Ryegrass: 20
[9]; [25]
  Plant response rating, I. Ryegrass: 30
[9]; Rate 250 g/ha, 0 to 100 scale
  Plant response rating, I. Ryegrass: 100
[9]; [26]
  Plant response rating, I. Ryegrass: 95
[10]; [24]
  Plant response rating, Blackgrass: 30
[10]; [25]
  Plant response rating, Blackgrass: 50
[10]; Rate 250 g/ha, 0 to 100 scale
  Plant response rating, Blackgrass: 50
[10]; [26]
  Plant response rating, Blackgrass: 100
[11]
  Plant response rating, Guineagrass: 100
[12]; [24]
  Plant response rating, Wheat (winter): 0
[12]; [25]
  Plant response rating, Wheat (winter): 10
[12]; Rate 250 g/ha, 0 to 100 scale
  Plant response rating, Wheat (winter): 0
[12]; [26]
  Plant response rating, Wheat (winter): 0
[13]; [24]
  Plant response rating, Barley (winter): 0
[13]; [25]
  Plant response rating, Barley (winter): 5
[13]; Rate 250 g/ha, 0 to 100 scale
  Plant response rating, Barley (winter): 10
[13]; [26]
  Plant response rating, Barley (winter): 40
[14]; [24]
  Plant response rating, Wild oat: 20
[14]; [25]
  Plant response rating, Wild oat: 40
[14]; [26]
  Plant response rating, Wild oat: 70
[15]
  Tall Mallow plant response rating: 10
[16]
  Plant response rating, P. morninglory: 0

Reference: patent US6737383B1, “Herbicidal oxadiazolidines” (priority 1999, dated 2004)
